# From patent US5240962A, “Antiobesity and fat-reducing agents” (priority 1991, dated 1993)
# Like-named read-outs stand apart in the source and are kept apart here.
# Tests used:
# [1] = biological target: T1, α-glucosidase (EC3.2.1.20) (Saccharomyces cerevisiae, UniProt P53341); assay: α-Glucosidase inhibition; assay type: biochemical
# T1 construct: purchased Sigma Chemical Company
# Protocol: The assay was conducted essentially according to the procedure of H. L. Lai, as described in Biochem. Biophys.
# The α-glucosidase (EC3.2.1.20) was purchased from Sigma Chemical Company. The enzyme solution (100 μg/ml, 0.1 ml), 0.1 M phosphate buffer (pH 6.8, 2.55 ml), 10 mM nitrophenyl glucoside (0.1 ml), and a sample solution in DMSO (0.15 ml) were combined and incubated for 10 minutes at 37° C. After incubation, the hydrolysis was stopped by the addition of 1 ml of 16(w/v)% of sodium carbonate. Liberated p-nitrophenol was measured at 400 nm.
# [2] = biological target: T2, invertase (or β-fructofuranosidase; EC 3.2.1.26) (Saccharomyces cerevisiae, UniProt P00724); assay: Invertase inhibition; assay type: biochemical; conditions: 200 μg/ml; pH 4.5, sucrose substrate; read-out: % Inhibition of invertase enzyme activity
# T2 construct: purchased Sigma Chemical Company
# T2 sequence (P00724 20-532): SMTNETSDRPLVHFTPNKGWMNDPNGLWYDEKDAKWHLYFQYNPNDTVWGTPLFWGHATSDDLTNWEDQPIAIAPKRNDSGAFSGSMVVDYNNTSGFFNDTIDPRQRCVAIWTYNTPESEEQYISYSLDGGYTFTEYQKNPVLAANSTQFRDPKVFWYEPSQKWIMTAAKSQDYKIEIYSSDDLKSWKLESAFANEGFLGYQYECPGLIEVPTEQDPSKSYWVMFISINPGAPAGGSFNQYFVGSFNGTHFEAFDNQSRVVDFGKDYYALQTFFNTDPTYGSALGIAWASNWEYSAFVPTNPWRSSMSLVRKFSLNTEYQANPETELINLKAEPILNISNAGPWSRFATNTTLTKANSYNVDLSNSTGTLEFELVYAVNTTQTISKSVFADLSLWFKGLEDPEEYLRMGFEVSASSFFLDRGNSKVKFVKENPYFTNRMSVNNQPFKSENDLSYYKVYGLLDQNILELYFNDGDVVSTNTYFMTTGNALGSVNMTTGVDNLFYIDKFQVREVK
# Protocol: The following phenols (compound numbers correspond to those designated in Example 1) were tested at a concentration of 200 μg/ml for their ability to inhibit invertase enzyme activity. The assay was conducted essentially according to the procedure of I. H. Segel, et al., as described in Biochemical Calculation, John Wiley Sons, New York, p. 287-290 (1976).
# The invertase (or β-fructofuranosidase; EC 3.2.1.26) was purchased from Sigma Chemical Company. The enzyme solution (100 μg/ml, 0.1 ml), 0.2 M acetate buffer (pH 4.5, 0.2 ml), 0.5 M sucrose (0.2 ml), and a sample solution in water/DMSO (0.6 ml) were combined and incubated for 10 minutes at 37° C. After incubation, the hydrolysis was stopped by the addition of Nelson reagent. Liberated reduced sugar was measured at 500 nm by the method of Somogyi-Nelson [N. Nelson, et al., J. Biol. Chem., 153, 375 (1944)].
# [3] = Effect on body weight of slightly obese mice, drug-food mixture; assay type: in vivo, mice (ICR); conditions: for Body weight change compared with control group (in words): 4 weeks; for Body weight gain, Week Four / Body weight gain, Week One / Body weight gain, Week Three / Body weight gain, Week Two: ad libitum, female ICR mice
# Protocol: Slightly obese female mice (ICR) having an average weight of 20-25 g were used in these studies. Compound 1 (Example 1; anacardic acid) was administered as a drug-food mixture. Normal mouse chow was powdered and the drug added to achieve a final concentration of 1 mg (low dose), 3 mg (intermediate dose), and 10 mg (high dose) per 100 g of food. The powdered chow was then repelleted into its usual form. Control chow was similarly prepared without addition of drug. Four groups of ten animals were assigned to receive normal chow (controls) or the drug in the low dose, in the intermediate dose or in the high dose. The animals were fed ad libitum over a 4-week period.
# [4] = Toxicity in mice over 4 weeks; assay type: in vivo; conditions: 300 mg/kg dose, over a period of 4 weeks
# Text: This finding, combined with in vitro enzyme inhibiting activities, provides evidence that the naturally occurring phenols of the formula (I) have unexpected utility in treating obesity in a mammalian subject.
# [5] = Effect on fat content of broiler chickens; assay type: in vivo; conditions: 27 days; for Fat Weight / Final Body Weight: broilers
# Protocol: Four groups of 5 seven-day old broiler having an average weight of 129 g were used. A test diet was available ad libitum to all birds during the test period (27 days).
# Control birds received no test compound. […] At the conclusion of the test, all birds were sacrificed and processed to determine fat weights and body weights. Feed intake was also recorded.
# [6] = Effect on body fat in rats on carbohydrate enriched diet; assay type: in vivo, Sprague-Dawley rats; conditions: for Epididymal Fat Weight / Final Body Weight / Inguinal Fat Weight: male rats
# Text: Male Sprague-Dawley weanling rats (Bioresearch Services, Oriental Yeast Co. Ltd.) of three weeks old were used in this study. They were allotted to two treatment groups of five rats when they weighed an average of about 65 g. The animals were fed carbohydrate enriched diets ad libitum for a period of 31 days.
# Control rate received the above diet. Two groups received different levels of compound 1 (Example 1), 0.1% and 0.2%, respectively. At the conclusion of the test, all animals were sacrificed. Inguinal fat, epididymal fat, liver, kidney, spleen, lung, heart, thymus gland, brown adipose tissue and pectoral muscle were excised and weighted.
# [7] = 10 minutes at 37° C., pH 6.8, nitrophenyl glucoside substrate
# [8] = High dose, 10 mg per 100 g of food
# [9] = Intermediate dose, 3 mg per 100 g of food
# [10] = Low dose, 1 mg per 100 g of food
# T1 sequence (P53341 whole entry): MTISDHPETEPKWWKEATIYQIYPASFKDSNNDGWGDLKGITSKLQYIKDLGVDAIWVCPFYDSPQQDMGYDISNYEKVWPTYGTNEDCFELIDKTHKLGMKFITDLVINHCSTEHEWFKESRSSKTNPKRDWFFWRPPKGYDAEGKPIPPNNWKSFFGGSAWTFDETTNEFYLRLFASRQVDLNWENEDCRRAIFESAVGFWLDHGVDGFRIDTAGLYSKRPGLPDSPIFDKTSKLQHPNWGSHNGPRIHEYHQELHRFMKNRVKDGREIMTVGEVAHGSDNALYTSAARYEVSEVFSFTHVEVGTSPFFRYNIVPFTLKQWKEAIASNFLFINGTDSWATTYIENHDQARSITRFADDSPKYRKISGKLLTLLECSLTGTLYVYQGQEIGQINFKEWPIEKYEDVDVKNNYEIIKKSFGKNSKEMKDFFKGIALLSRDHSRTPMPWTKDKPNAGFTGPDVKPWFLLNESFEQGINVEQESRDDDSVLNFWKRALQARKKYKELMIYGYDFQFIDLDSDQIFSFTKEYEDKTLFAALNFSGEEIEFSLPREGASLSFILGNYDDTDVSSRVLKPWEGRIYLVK
structure (smiles),measurement,setting,value
"CCC/C=C\C/C=C\CCCCCCCc1cc(O)c(C)c(O)c1 [Compound 11, 2-methyl-5-[8(z), 11(z)-pentadecadienyl] resorcinol]",IC50,[1]; [7],151 µM
"C=CC/C=C\C/C=C\CCCCCCCc1cc(O)cc(O)c1 [Compound 16, 5-[8(z), 11(z), 14-pentadecatrienyl]resorcinol]",IC50,[1],44.5 µM
same,inhibition at 200 µg/mL,[2],32%
"CCCCCCCCCCCCCCCc1cccc(O)c1C(=O)O [Compound 1, 6 - Pentadecylsalicylic Acid]",IC50,[1]; [7],7.17 µM
same,Body weight change compared with control group (in words),[3]; [8],gained less weight than mice in the control group
same,"Body weight gain, Week Four",[3]; [8],+4.75 g
same,"Body weight gain, Week One",[3]; [8],+0.31 g
same,"Body weight gain, Week Three",[3]; [8],+4.13 g
same,"Body weight gain, Week Two",[3]; [8],+1.88 g
same,Body weight change compared with control group (in words),[3]; [9],gained less weight than mice in the control group
same,"Body weight gain, Week Four",[3]; [9],+5.00 g
same,"Body weight gain, Week One",[3]; [9],+0.56 g
same,"Body weight gain, Week Three",[3]; [9],+4.5 g
same,"Body weight gain, Week Two",[3]; [9],+2.13 g
same,Body weight change compared with control group (in words),[3]; [10],no significant deviation in body weight from the control group
same,"Body weight gain, Week Four",[3]; [10],+5.13 g
same,"Body weight gain, Week One",[3]; [10],+0.63 g
same,"Body weight gain, Week Three",[3]; [10],+4.63 g
same,"Body weight gain, Week Two",[3]; [10],+2.19 g
same,Toxicity,[4],no toxicity
same,Fat Weight,[5]; 0.1% in diet,12 g
same,Final Body Weight,[5]; 0.1% in diet,110 g
same,Fat Weight,[5]; 0.2% in diet,10 g
same,Final Body Weight,[5]; 0.2% in diet,108 g
same,Loss of the initial body weight,[5]; birds receiving anacardic acid in diet,approximately 10%
same,Epididymal Fat Weight,"[6]; 0.1% in diet, 31 days",3.2 g
same,Final Body Weight,"[6]; 0.1% in diet, 31 days",301.6 g
same,Inguinal Fat Weight,"[6]; 0.1% in diet, 31 days",7.1 g
same,Epididymal Fat Weight,"[6]; 0.2% in diet, 31 days",3.7 g
same,Final Body Weight,"[6]; 0.2% in diet, 31 days",311.0 g
same,Inguinal Fat Weight,"[6]; 0.2% in diet, 31 days",7.5 g
same,Reduction in fat deposition,"[6]; anacardic acid in the animal diet, statement on Tables 4 and 7 (broilers and rats)",≥ 20%
same,Loss of initial body weight,"[6]; rats receiving anacardic acid in diet, 31 days",less than 10%
"CCCCCCCCCCCCCCCc1cc(O)cc(O)c1 [Compound 13, 5-Pentadecylresorcinol]",IC50,[1]; [7],268 µM
"CCCCCC/C=C\CCCCCCCc1cc(O)c(C)c(O)c1 [Compound 10, 2-methyl-5-[8(z)-pentadecenyl]resorcinol]",IC50,[1]; [7],165 µM
"CCCCCCCCCCCCCCCc1cc(O)c(C)c(O)c1 [Compound 9, 2-Methyl-5-pentadecylresorcinol]",IC50,[1]; [7],38.9 µM
"CCCCCCCCCCCCCCCc1cccc(O)c1 [Compound 5, 3 - Pentadecylphenol]",IC50,[1]; [7],483 µM
"CCC/C=C\C/C=C\CCCCCCCc1cccc(O)c1C(=O)O [Compound 3, 6-[8(z), 11(z)-pentadecadienyl] salicylic acid]",IC50,[1]; [7],3.77 µM
"C=CC/C=C\C/C=C\CCCCCCCc1cccc(O)c1C(=O)O [Compound 4, 6-[8(z), 11(z), 14pentadecatrienyl] salicylic acid]",IC50,[1]; [7],0.876 µM
same,inhibition at 200 µg/mL,[2],73%
"C=CC/C=C\C/C=C\CCCCCCCc1cc(O)c(C)c(O)c1 [Compound 12, 2-methyl-5-[8(z), 11(z), 14-pentadecatrienyl]resorcinol]",IC50,[1]; [7],170 µM
same,inhibition at 200 µg/mL,[2],79%
